This is an account of results in US10273228B2, “Hepatitis B viral assembly effectors” (Indiana University Research and Technology Corporation, priority 2015, dated 2019).

For series [1], the system named is HBV viral load, AD38 cells. The series is described as follows: Activity of test compounds on viral production from AD38 cells (viral load by quantitative PCR of the core sequence in supernatant). To be noted: 10 μM compound, 6 days at 37° C., vs DMSO control wells, Table 9; for activity at 10 µM: Hepatitis B virus, 144 h, read-out: AD38 Viral Load (CpAM/DMSO %) at 10 μM. Format: cell-based, Hepatitis B virus. An outline of the steps: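 Cells seeded at 50,000/well on collagen-coated plates and exposed for 6 days at 37 °C to compound at 1, 3 or 10 μM final (1.0% DMSO). Supernatant viral DNA measured by TaqMan qPCR of the core sequence against known standards, compared with DMSO control wells.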

Series [2] has as its system AD38 cells. As to the kind of experiment: AD38 viability normalized to DMSO control. Format: cell-based. The settings on record: 10 μM compound, vs DMSO control; Table 9. The method, then: AD38 cells were then re-suspended with 10 mL of treatment medium and counted. Wells of a collagen coated 96-well NUNC microtiter plate were seeded at 50,000/well in 180 μL of treatment medium, and 20 μL of either 10% DMSO (Control) or a 10× solution of test compound in 10% DMSO in treatment media was added for a final compound concentration 1, 3, or 10 μM (1.0% final [DMSO]) and plates were incubated for 6 days at 37° C.

Turning to `CCCCOc1ccc(S(=O)(=O)N2CCN(c3nc(Nc4ccc(F)cc4)cc(-c4nccs4)n3)CC2)cc1` [Compound 1359], the “AD38 Viral Load (CpAM/DMSO %) at 10 μM” value in series [1] was found to be 60%. In addition, the “AD38 Viability Normalized Result (CPAM/DMSO %) at 10 μM” value in series [2] is on record as 97%.
On to `O=S(=O)(c1ccccc1)N1CCN(c2nc(Nc3ccc(F)cc3)cc(-c3nccs3)n2)CC1` [Compound 1360], for which the activity at 10 µM in series [1] was determined as 28%. In series [2], the “AD38 Viability Normalized Result (CPAM/DMSO %) at 10 μM” value is 94%.
In the case of `Cc1ccc(S(=O)(=O)N2CCN(c3nc(Nc4ccc(F)cc4)cc(-c4nccs4)n3)CC2)cc1` [Compound 1361], in series [1], the activity at 10 µM stood at 25%. Also, the “AD38 Viability Normalized Result (CPAM/DMSO %) at 10 μM” value in series [2] worked out at 95%.
For `O=S(=O)(c1ccc(F)cc1)N1CCN(c2nc(Nc3ccc(F)cc3)cc(-c3nccs3)n2)CC1` [Compound 1362] the same measures were 54% and 88%.
Taken in the same sequence, the figures for `COc1ccc(S(=O)(=O)N2CCN(c3nc(C)cc(Nc4ccc(C#N)cc4)n3)C(C)C2)cc1` (stereo not drawn) [Compound 1363] were 1% and 93%.
Taken in the same sequence, the figures for `N#Cc1ccc(Nc2cc(-c3nccs3)nc(N3CCN(S(=O)(=O)c4ccc(OC(F)(F)F)cc4)CC3)n2)cc1` [Compound 1364] were 62% and 100%.
Take `N#Cc1ccc(Nc2cc(-c3nccs3)nc(N3CCN(S(=O)(=O)c4ccc(F)cc4)CC3)n2)cc1` [Compound 1365]: the activity at 10 µM in series [1] turned out to be 53%. Besides, in series [2], the “AD38 Viability Normalized Result (CPAM/DMSO %) at 10 μM” value is recorded as 98%.
Take `COc1ccc(S(=O)(=O)N2CCN(c3nc(C)cc(Nc4ccc(C#N)cc4)n3)CC2=O)cc1` [Compound 1366, 4-((2-(4-((4-methoxyphenyl)sulfonyl)-3-oxopiperazin-1-yl)-6-methylpyrimidin-4-yl)amino) benzonitrile]: the activity at 10 µM in series [1] was 41%. Besides, the “AD38 Viability Normalized Result (CPAM/DMSO %) at 10 μM” value in series [2] worked out at 108%.
For the molecule `O=S(=O)(c1ccc(OC(F)(F)F)cc1)N1CCN(c2nc(Nc3ccc(F)cc3)cc(-c3nccs3)n2)CC1` [Compound 1367], the “AD38 Viral Load (CpAM/DMSO %) at 10 μM” value in series [1] came to 44%. The “AD38 Viability Normalized Result (CPAM/DMSO %) at 10 μM” value in series [2] is 105%.
In the case of `CCCCOc1ccc(S(=O)(=O)N2CCN(c3nc(Nc4ccc(F)cc4)cc(-c4nccs4)n3)CC2)cc1` [Compound 1368], the “AD38 Viral Load (CpAM/DMSO %) at 10 μM” value in series [1] came to 147%. Moreover, the “AD38 Viability Normalized Result (CPAM/DMSO %) at 10 μM” value in series [2] amounted to 94%.
Regarding `CCCCOc1ccc(S(=O)(=O)N2CCN(c3nc(Nc4ccc(C#N)cc4)cc(-c4cncs4)n3)CC2)cc1` [Compound 1369], the activity at 10 µM in series [1] worked out at 56%. The “AD38 Viability Normalized Result (CPAM/DMSO %) at 10 μM” value in series [2] worked out at 96%.
For `COc1ccc(S(=O)(=O)N2CCN(c3nc(C)cc(Nc4ccc(F)cc4)n3)CC2(C)C)cc1` [Compound 1370] the same measures were 12% and 114%.
Taken in the same sequence, the figures for `COc1ccc(S(=O)(=O)N2CCN(c3nc(C)cc(Nc4ccc(F)cc4)n3)C(C)C2)cc1` (stereo not drawn) [Compound 1371] were 29% and 111%.
For `N#Cc1ccc(Nc2cc(-c3cncs3)nc(N3CCN(S(=O)(=O)c4ccc(OC(F)(F)F)cc4)CC3)n2)cc1` [Compound 1372], the activity at 10 µM in series [1] worked out at 21%. The “AD38 Viability Normalized Result (CPAM/DMSO %) at 10 μM” value in series [2] is 109%.
Consider `CCOc1ccc(S(=O)(=O)N2CCN(c3nc(Nc4ccc(C#N)cc4)cc(-c4cncs4)n3)CC2)cc1` [Compound 1373], for which the activity at 10 µM in series [1] was 8%. Further, the “AD38 Viability Normalized Result (CPAM/DMSO %) at 10 μM” value in series [2] worked out at 109%.
For `N#Cc1ccc(Nc2cc(-c3cncs3)nc(N3CCN(S(=O)(=O)c4ccccc4)CC3)n2)cc1` [Compound 1374] the same measures were 7% and 107%.
As for `O=S(=O)(c1ccc(F)cc1)N1CCN(c2nc(Nc3ccc(F)cc3)cc(-c3nccs3)n2)CC1` [Compound 1375], the “AD38 Viral Load (CpAM/DMSO %) at 10 μM” value in series [1] was 43%. In addition, in series [2], the “AD38 Viability Normalized Result (CPAM/DMSO %) at 10 μM” value is given as 104%.
With `COc1ccc(S(=O)(=O)N2CCN(c3nc(C)cc(Nc4ccc(C#N)cc4)n3)CC2(C)C)cc1` [Compound 1376], the activity at 10 µM in series [1] was 20%. For the same molecule, the “AD38 Viability Normalized Result (CPAM/DMSO %) at 10 μM” value in series [2] was 121%.
As for `Cc1cc(Nc2ccc(C#N)cc2)nc(N2CCN(S(=O)(=O)c3ccc(OCCN(C)C)cc3)CC2)n1` [Compound 1377, 4-((2-(4-((4-(2-(dimethylamino)ethoxy)phenyl)sulfonyl)piperazin-1-yl)-6-methylpyrimidin-4-yl)amino) benzonitrile], the activity at 10 µM in series [1] worked out at 1%. Further, the “AD38 Viability Normalized Result (CPAM/DMSO %) at 10 μM” value in series [2] amounted to 15%.
Turning to `Cc1cc(Nc2ccc(F)cc2)nc(N2CCN(S(=O)(=O)c3ccc(OCCN(C)C)cc3)CC2)n1` [Compound 1378, 2-(4-((4-(2-(dimethylamino)ethoxy)phenyl)sulfonyl)piperazin-1-yl)-N-(4-fluorophenyl)-6-methylpyrimidin-4-amine], the activity at 10 µM in series [1] was 13%. Also, the “AD38 Viability Normalized Result (CPAM/DMSO %) at 10 μM” value in series [2] amounted to 1%.
Taken in the same sequence, the figures for `Cc1ccc(S(=O)(=O)N2CCN(c3nc(Nc4ccc(C#N)cc4)cc(-c4cncs4)n3)CC2)cc1` [Compound 1379] were 6% and 110%.
For `N#Cc1ccc(Nc2cc(-c3cncs3)nc(N3CCN(S(=O)(=O)c4ccc(F)cc4)CC3)n2)cc1` [Compound 1380] the same measures were 10% and 108%.
Taken in the same sequence, the figures for `Cc1cc(Nc2ccc(F)cc2)nc(N2CCN(S(=O)(=O)c3ccc(C(=O)O)cc3)CC2)n1` [Compound 1381, 4-((4-(4-((4-fluorophenyl)amino)-6-methylpyrimidin-2-yl)piperazin-1-yl)sulfonyl) benzoic acid] were 46% and 107%.
As to `COC(=O)c1ccc(S(=O)(=O)N2CCN(c3nc(C)cc(Nc4ccc(F)cc4)n3)CC2)cc1` [Compound 1382, methyl 4-((4-(4-((4-fluorophenyl)amino)-6-methylpyrimidin-2-yl)piperazin-1-yl)sulfonyl) benzoate], the activity at 10 µM in series [1] came to 34%. Moreover, the “AD38 Viability Normalized Result (CPAM/DMSO %) at 10 μM” value in series [2] amounted to 107%.
Taken in the same sequence, the figures for `Cc1cc(Nc2ccc(F)cc2)nc(N2CCN(S(=O)(=O)c3ccc(OCCN4CCOCC4)cc3)CC2)n1` [Compound 1383, N-(4-fluorophenyl)-6-methyl-2-(4-((4-(2-morpholinoethoxy)phenyl)sulfonyl)piperazin-1-yl) pyrimidin-4-amine] were 14% and 94%.
For `Cc1cc(Nc2ccc(F)cc2)nc(N2CCN(S(=O)(=O)c3ccc(OCC(=O)O)cc3)CC2)n1` [Compound 1384, 2-(4-((4-(4-((4-fluorophenyl)amino)-6-methylpyrimidin-2-yl)piperazin-1-yl)sulfonyl)phenoxy) acetic acid] the same measures were 122% and 91%.
Turning to `CCOC(=O)COc1ccc(S(=O)(=O)N2CCN(c3nc(C)cc(Nc4ccc(F)cc4)n3)CC2)cc1` [Compound 1385, ethyl 2-(4-((4-(4-((4-fluorophenyl)amino)-6-methylpyrimidin-2-yl)piperazin-1-yl)sulfonyl)phenoxy) acetate], the activity at 10 µM in series [1] is 105%. Moreover, the “AD38 Viability Normalized Result (CPAM/DMSO %) at 10 μM” value in series [2] is given as 94%.
As for `COC(=O)c1ccc(S(=O)(=O)N2CCN(c3nc(Nc4ccc(F)cc4)cc(C(F)(F)F)n3)CC2)cc1` [Compound 1386], in series [1], the activity at 10 µM is 23%. Moreover, the “AD38 Viability Normalized Result (CPAM/DMSO %) at 10 μM” value in series [2] came to 118%.
Regarding `COC(=O)CCCOc1ccc(S(=O)(=O)N2CCN(c3nc(C)cc(Nc4ccc(F)cc4)n3)CC2)cc1` [Compound 1387, methyl 4-(4-((4-(4-((4-fluorophenyl)amino)-6-methylpyrimidin-2-yl)piperazin-1-yl)sulfonyl)phenoxy) butanoate], the activity at 10 µM in series [1] was 19%. Moreover, the “AD38 Viability Normalized Result (CPAM/DMSO %) at 10 μM” value in series [2] is listed as 107%.
For the molecule `O=C(O)c1ccc(S(=O)(=O)N2CCN(c3nc(Nc4ccc(F)cc4)cc(C(F)(F)F)n3)CC2)cc1` [Compound 1388, 4-((4-(4-((4-fluorophenyl)amino)-6-(trifluoromethyl)pyrimidin-2-yl)piperazin-1-yl)sulfonyl) benzoic acid], in series [1], the activity at 10 µM was 15%. Also, the “AD38 Viability Normalized Result (CPAM/DMSO %) at 10 μM” value in series [2] amounted to 106%.
For the molecule `CN(C)CCOc1ccc(S(=O)(=O)N2CCN(c3nc(Nc4ccc(F)cc4)cc(C(F)(F)F)n3)CC2)cc1` [Compound 1389, 2-(4-((4-(2-(dimethylamino)ethoxy)phenyl)sulfonyl)piperazin-1-yl)-N-(4-fluorophenyl)-6-(trifluoromethyl) pyrimidin-4-amine], in series [1], the activity at 10 µM was determined as 2%. Moreover, the “AD38 Viability Normalized Result (CPAM/DMSO %) at 10 μM” value in series [2] was 0%.
As for `O=S(=O)(c1ccc(OCCN2CCOCC2)cc1)N1CCN(c2nc(Nc3ccc(F)cc3)cc(C(F)(F)F)n2)CC1` [Compound 1390, N-(4-fluorophenyl)-2-(4-((4-(2-morpholinoethoxy)phenyl)sulfonyl)piperazin-1-yl)-6-(trifluoromethyl) pyrimidin-4-amine], the activity at 10 µM in series [1] stood at 1%. For the same molecule, the “AD38 Viability Normalized Result (CPAM/DMSO %) at 10 μM” value in series [2] was 104%.
Turning to `O=S(=O)(c1ccc(C(F)(F)F)cc1)N1CCN(c2nc(Nc3ccc(F)cc3)cc(C(F)(F)F)n2)CC1` [Compound 1391], the activity at 10 µM in series [1] is 16%. Also, the “AD38 Viability Normalized Result (CPAM/DMSO %) at 10 μM” value in series [2] is given as 88%.
